Test results published in US11859021B2, “Compounds for regulating trained immunity, and their methods of use” (Trained Therapeutix Discovery, Inc., priority 2021, dated 2024).

Tests used:
human NOD2 (hNOD2) = biological target: T1, human NOD2 (hNOD2) (Homo sapiens, UniProt Q9HC29); experiment: In vitro NOD2 activation assay in HEK-Blue hNOD2 cells; format: cell-based; conditions: overnight incubation, FIG. 3
T1 construct: host or cells: HEK-Blue hNOD2 cells
Protocol: The stimulation of human NOD2 (hNOD2) by compounds disclosed herein was studied by monitoring activation of NF-κB in HEK-Blue™ hNOD2 cells (Invitrogen). 50,000 HEK-Blue™ hNOD2 cells were seeded in HEK-Blue™ Detection Medium in flat-bottom tissue culture plates. Concentration ranges of the test article (compounds diluted from DMSO-solutions (17.8 mmoL/L), first with demineralized water and then with PBS to the desired concentrations) were added to the cells in the tissue culture plates. Cells were incubated overnight at 37° C. and 5% CO2. The following day, supernatants were collected in an ELISA plate and the OD was measured at 620 nm using a spectrophotometer.
The signal in this assay is based on NOD2 stimulation with a ligand which subsequently activates NF-κB and AP-1, resulting in the production of SEAP. Levels of SEAP were then determined with HEK-Blue™ Detection medium (Invitrogen). The hydrolysis of the substrate in the medium by SEAP produces a purple/blue color that was then measured with an Absorbance microplate reader. OD values are mapped based on test article concentration and are depicted in FIG. 3. Assay performance was validated with muramyl dipeptide (CAS number [53678-77-6]).

[1] = Solubility test in PBS buffer; format: physicochemical; conditions: PBS pH 7.4, 0.2 mg/mL; for Appearance at 37° C.: 1 minute in 37° C. water bath; for Appearance at RT: room temperature
Protocol: First, compounds were weighed in a vial and PBS buffer (137, 2.7, 10 and 1.8 mM in NaCl, KCl, Na2HPO4, KH2PO4, respectively; pH=7.4) was added, such that the concentration would become 0.2 mg/mL in case full dissolution would take place. The sample was shaken, left to stand for an hour, shaken again, and then the appearance of the solution at room temperature (RT) was checked. Next, the sample was warmed for 1 minute in a water bath of 37° C., and the appearance of the solution was checked again. In the below table the results are compiled.

[2] = HPLC retention times to compare lipophilicities; format: physicochemical; conditions: Kinetex EVO C18 column, same gradient A to B; higher retention time = more lipophilic
Protocol: Experimentally, one can also compare lipophilicities of molecules by performing HPLC using the same elution gradient. Molecules that have higher affinities with the hydrophobic C18-material of the column are more lipophilic and as a result have a higher retention time.
Methods: HPLC-MS(SIM) and HPLC-ELSD were performed on a Phenomenex Kinetex 5 micrometer EVO C18 100A LC-column (50×2.1 mm) employing the same gradient from A to B eluent, where A=20 mM NH4HCO2 in H2O with 0.1 v/v % formic acid, and B=2-propanol/MeCN/H2O 85:15:5, also with 20 mM NH4HCO2 and 0.1 v/v % formic acid.

[3] = Solubility test in demineralized water; format: physicochemical; conditions: 0.3 mM, film, sonicated, overnight
Protocol: Next, compounds were weighed and dissolved in chloroform/methanol. The solutions were left to dry in a vial forming a film of the materials. The vials were put in vacuo to remove traces of organic solvent. Demineralized water was added, such that the concentration of the compounds would become 0.3 mM in case full dissolution would take place (0.3 mM corresponds to 0.3 mg/mL for a MW=1000 Dalton compound). The vial was briefly sonicated in a water bath, left to stand overnight, and once again sonicated (sonication at RT). The appearances of the solutions at RT were checked to assess solubilities. In the below table the results are compiled.

[4] = Degradation by augmented oxidation test; format: physicochemical; conditions: 12% hydrogen peroxide in water, 80° C., 4 hours
Protocol: The reference compounds MDP and MDP(Bn) as well as the Bn-substituted compounds from Example 7 (i.e. MDP(Bn)-DSPE[click] and Example 14 (i.e. MTP(Bn)-a-DPPE) were mixed with 12% hydrogen peroxide in water and were heated to 80° C. for 4 hours, in order to get a fast degradation of the molecules by oxidation, mimicking slower in-vivo oxidation events.
The resulting reaction mixtures were diluted with acetonitrile and water (1:1) for the MDP and MDP(Bn) test solutions, or with iPrOH, acetonitrile and water (40:7.5:52.5) with 0.1% formic acid and 20 mM ammonium formate for the MDP(Bn)-DSPE[click] and the MTP(Bn)-a-DPPE solutions. The 4 diluted samples were analyzed by HPLC-MS. For reference, the 4 starting materials were also analyzed by HPLC-MS, as well as MDP-DSPE[click] and MTP-a-DPPE, i.e. the de-benzylated reference compounds to the Bn-substituted test molecules.

T1 sequence (Q9HC29 whole entry): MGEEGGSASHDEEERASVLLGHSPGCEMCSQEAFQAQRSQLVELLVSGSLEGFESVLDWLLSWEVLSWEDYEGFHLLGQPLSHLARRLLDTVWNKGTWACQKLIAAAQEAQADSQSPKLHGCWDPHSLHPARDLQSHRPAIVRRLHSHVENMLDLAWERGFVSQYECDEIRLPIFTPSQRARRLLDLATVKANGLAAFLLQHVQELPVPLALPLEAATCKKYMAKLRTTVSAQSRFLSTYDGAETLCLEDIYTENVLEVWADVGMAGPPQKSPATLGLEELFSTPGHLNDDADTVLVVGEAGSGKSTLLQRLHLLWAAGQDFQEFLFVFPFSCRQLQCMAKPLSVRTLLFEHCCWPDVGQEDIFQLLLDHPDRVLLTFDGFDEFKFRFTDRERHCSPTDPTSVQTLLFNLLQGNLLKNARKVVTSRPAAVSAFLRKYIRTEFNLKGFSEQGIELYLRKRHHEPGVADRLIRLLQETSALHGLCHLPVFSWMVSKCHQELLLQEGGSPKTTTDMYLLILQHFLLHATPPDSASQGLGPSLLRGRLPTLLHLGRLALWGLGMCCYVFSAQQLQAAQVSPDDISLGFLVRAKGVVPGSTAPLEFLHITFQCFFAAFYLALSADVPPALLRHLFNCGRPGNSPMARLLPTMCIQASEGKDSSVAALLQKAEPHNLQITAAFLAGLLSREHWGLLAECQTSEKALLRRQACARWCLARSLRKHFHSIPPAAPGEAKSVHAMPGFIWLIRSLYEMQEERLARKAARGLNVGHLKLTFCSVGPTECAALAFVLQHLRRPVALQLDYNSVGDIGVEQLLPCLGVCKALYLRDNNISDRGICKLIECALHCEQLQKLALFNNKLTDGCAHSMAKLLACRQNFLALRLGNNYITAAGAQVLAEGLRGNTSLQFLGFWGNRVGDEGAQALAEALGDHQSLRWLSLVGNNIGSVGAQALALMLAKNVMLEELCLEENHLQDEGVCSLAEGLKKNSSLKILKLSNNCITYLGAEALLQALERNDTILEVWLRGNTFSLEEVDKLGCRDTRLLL

SMILES	NOD2 activation (NF-κB/SEAP reporter, OD at 620 nm) (human NOD2 (hNOD2))	Appearance at 37° C. [1]	Appearance at RT [1]	HPLC-ELSD t [2] [min]	HPLC-MS t [2] [min]	Appearance at RT [3]	Oxidative degradation, products by HPLC-MS [4]
CCCCCCCCCCCCCCCCCC(=O)OC[C@H](COP(=O)(O)OCCNC(=O)Cn1cc(CNC(=O)CC[C@@H](NC(=O)[C@H](C)NC(=O)[C@@H](C)O[C@H]2[C@H](O)[C@@H](CO)OC(O)[C@@H]2NC(C)=O)C(N)=O)nn1)OC(=O)CCCCCCCCCCCCCCCCC (stereo partly shown) [Example 2, MDP-DSPE [Click]]	comparable	hazy	hazy	4.58	4.46	Gelly/hazy/precipitate	–
CC(=O)N[C@H]1C(O)O[C@H](CO)[C@@H](O)[C@@H]1O[C@H](C)C(=O)N[C@@H](C)C(=O)N[C@H](CCC(=O)NCc1cn(CC(=O)O[C@H]2CC[C@@]3(C)C(=CC[C@H]4[C@@H]5CC[C@H]([C@H](C)CCCC(C)C)[C@@]5(C)CC[C@@H]43)C2)nn1)C(N)=O (stereo partly shown) [Example 3, MDP-Chol [Click]]	comparable	hazy	suspension	–	–	Gelly/hazy/precipitate	–
CCCCCCCCCCCCCCCCCC(=O)OC[C@H](COP(=O)(O)OCCNC(=O)Cn1cc(CNC(=O)CC[C@@H](NC(=O)[C@H](C)NC(=O)[C@@H](C)O[C@H]2[C@H](O)[C@@H](CO)OC(OCc3ccccc3)[C@@H]2NC(C)=O)C(N)=O)nn1)OC(=O)CCCCCCCCCCCCCCCCC (stereo partly shown) [Example 7, MDP(Bn)-DSPE [Click]]	comparable	hazy	suspension	5.16	5.16	Hazy	mainly degraded via oxidation of the Bn-group to a benzoate group (+14) followed by hydrolysis of the benzoate (−104)
CC(=O)N[C@H]1[C@@H](OCc2ccccc2)O[C@H](CO)[C@@H](O)[C@@H]1O[C@H](C)C(=O)N[C@@H](C)C(=O)N[C@H](CCC(=O)NCc1cn(CC(=O)O[C@H]2CC[C@@]3(C)C(=CC[C@H]4[C@@H]5CC[C@H]([C@H](C)CCCC(C)C)[C@@]5(C)CC[C@@H]43)C2)nn1)C(N)=O [Example 8, MDP(Bn)-Chol[Click]]	able to activate NOD2, but seemingly to a lesser extent	suspension	suspension	–	–	Precipitate	–
CCCCCCCCCCCCCCCCCC(=O)OCc1cn(CCCC[C@H](NC(=O)CC[C@@H](NC(=O)[C@H](C)NC(=O)[C@@H](C)O[C@H]2[C@H](O)[C@@H](CO)OC(OCc3ccccc3)[C@@H]2NC(C)=O)C(N)=O)C(N)=O)nn1 (stereo partly shown) [Example 9, MTP-b-C18[Invclick]]	–	–	–	–	–	Precipitate	–
CCCCCCCCCCCCCCCCCC(=O)NCCCC[C@H](NC(=O)CC[C@@H](NC(=O)[C@H](C)NC(=O)[C@@H](C)O[C@H]1[C@H](O)[C@@H](CO)OC(OCc2ccccc2)[C@@H]1NC(C)=O)C(N)=O)C(N)=O (stereo partly shown) [Example 10, MTP-b-C18]	–	–	–	–	–	Precipitate	–
CCCCCCCCCCCCCCCCCCNC(=O)CC[C@@H](NC(=O)[C@H](C)NC(=O)[C@@H](C)O[C@H]1[C@H](O)[C@@H](CO)OC(O)[C@@H]1NC(C)=O)C(N)=O (stereo partly shown) [Example 11, MDP-C18]	–	suspension	suspension	–	–	Precipitate	–
CCCCCCCCCCCCCCCCCC(=O)OC[C@H](COC(=O)NCCCC[C@H](NC(=O)CC[C@@H](NC(=O)[C@H](C)NC(=O)[C@@H](C)O[C@H]1[C@H](O)[C@@H](CO)OC(OCc2ccccc2)[C@@H]1NC(C)=O)C(N)=O)C(N)=O)OC(=O)CCCCCCCCCCCCCCCCC (stereo partly shown) [Example 13, MTP-b-DSG]	able to activate NOD2, but seemingly to a lesser extent	suspension	suspension	5.49	–	Gel/precipitate	–
CCCCCCCCCCCCCCCC(=O)OC[C@H](COP(=O)(O)OCCNC(=O)[C@H](C)NC(=O)CC[C@@H](NC(=O)[C@H](C)NC(=O)[C@@H](C)O[C@H]1[C@H](O)[C@@H](CO)OC(OCc2ccccc2)[C@@H]1NC(C)=O)C(N)=O)OC(=O)CCCCCCCCCCCCCCC (stereo partly shown) [Example 14, MTP(Bn)-a-DPPE]	–	–	–	3.5	3.61	–	–
CCCCCCCCCCCCCCCCCC(=O)OC[C@H]1OC(O)[C@H](NC(C)=O)[C@@H](O[C@H](C)C(=O)N[C@@H](C)C(=O)N[C@H](CCC(=O)O)C(N)=O)[C@@H]1O (stereo partly drawn) [MDP-C18[mur], N-Acetylmuramyl-L-Alanyl-D-Isoglutamine-6-O-Stearoyl, reference compound]	–	clear	clear	–	0.95	Clear	–
CCCCCCCCCCCCCCCC(=O)OC[C@H](COP(=O)(O)OCCNC(=O)[C@H](C)NC(=O)CC[C@@H](NC(=O)[C@H](C)NC(=O)[C@@H](C)O[C@H]1[C@H](O)[C@@H](CO)OC(OCc2ccccc2)[C@@H]1NC(C)=O)C(N)=O)OC(=O)CCCCCCCCCCCCCCC (stereo partly shown) [MTP(Bn)-a-DPPE]	–	–	–	–	–	–	mainly degraded via oxidation of the Bn-group to a benzoate group (+14) followed by hydrolysis of the benzoate (−104)
CCCCCCCCCCCCCCCC(=O)OC[C@H](COP(=O)(O)OCCNC(=O)[C@H](C)NC(=O)CC[C@@H](NC(=O)[C@H](C)NC(=O)[C@@H](C)O[C@H]1[C@H](O)[C@@H](CO)OC(O)[C@@H]1NC(C)=O)C(N)=O)OC(=O)CCCCCCCCCCCCCCC (stereo partly drawn) [Mifamurtide, N—(N-Acetylmuramoyl)-L-alanyl-D-alpha-glutaminyl-N-[(7R)-4-hydroxy-4-oxido-10-oxo-7-[(1-oxohexadecyl)oxy]-3,5,9-trioxa-4-phosphapentacos-1-yl]-L-alaninamide, reference compound]	–	clear	hazy	3.04	2.85	Clear	–
